In patent US11738065B2, “Polypeptides and analogues thereof for use in the treatment of diabetes and bone disorders” (UNIVERSITY OF ULSTER, priority 2015, dated 2023):
One block for each molecule: values may come before it. Where a SMILES comes first, the peptide text is derived from it. [ ]: non-standard residue; d: D form.

Assays:
BRIN-BD11 cells = test: In vitro insulin secretion from BRIN-BD11 cells; format: cell-based; settings: 20 min; for Insulin secretion from BRIN-BD11 cells: 10^−6 mol/l peptide, vs 5.6 and 16.7 mmol/l glucose control
Method: BRIN-BD11 cells were used to assess the insulin releasing activity of polypeptides as described by […] et al., 1996 (Diabetes. 1996 August; 45(8):1132-40). Cells were cultured in RPMI-1640 growth media supplemented with 10% (v/v) foetal bovine serum (FBS) and 1% (v/v) antibiotics (penicillin (100 U/ml), streptomycin ([…])), in 75 cm2 sterile tissue culture flasks (Greiner bio-one, UK) maintained at 37° C. and 5% CO2 in a LEEC incubator (Laboratory technical engineering, Nottingham, UK). BRIN-BD11 cells were then seeded at a density of 150,000 cells/well in 24-well plates (Nunc, Roskilde, Denmark) and allowed to attach overnight at 37° C.

DPP-4 = target: T1, DPP-4 (Sus scrofa, UniProt P22411); test: DPP-4 degradation / in vitro DPP-4 half-life; format: in vitro ADME, porcine; settings: pig; 37° C., 50 mmol/L TEA-HCl pH 7.8, 5 mU purified porcine DPP-4, 0-12 h
T1 construct: purchased Sigma-Aldrich, Dorset, UK
Method: (§1) For calculation of experimental molecular masses, peptide samples (1 μg) were mixed with α-cyano-4-hydroxycinnamic acid (1 μg) and applied to a Voyager-DE BioSpectrometry Workstation and mass-to-charge (m/z) ratio verses peak intensity recorded by MALDI-TOF mass spectrometry. […] Degradation profiles were obtained using rp-HPLC analysis and HPLC peak area data used to calculate percentage intact peptide remaining at each time point.
(§2) Briefly, polypeptides (20 μg) were incubated with 5 μl of purified DPP-4 (5 mU, Sigma-Aldrich, Dorset, UK) in 50 mM TEA-HCl (pH 7.8; final volume 450 μl) at 37° C. for 0, 1, 4 and 12 hours. Enzymatic reactions were terminated by the addition of 50 μl TFA/H2O (10% v/v, Sigma-Aldrich, Dorset, UK). Reaction products were then separated by HPLC and analysed using MALDI-TOF.

lean control mice [1] = test: Acute and persistent glucose lowering and insulin releasing effects in lean control mice; format: in vivo
Method: All animal experiments were carried out in accordance with the UK Animals (Scientific Procedures) Act 1986. For food intake studies, fasted (18 h) mice were given intraperitoneal (i.p) injections of polypeptides at a dose of 25, 100 or 250 nmol/kg bw. Mice were then allowed free access to normal chow for 180 mins and cumulative food intake measured. […] Blood samples were collected from the cut tip on the tail vein of conscious mice into chilled fluoride/heparin glucose micro-centrifuge tubes (Sarstedt, Numbrecht, Germany) at the time points indicated in the Drawings. Blood glucose was measured directly using a hand-held Ascencia Contour blood glucose meter (Bayer Healthcare, Newbury, Berkshire, UK).

lean control mice [2] = test: Acute food intake in lean control mice; format: in vivo; settings: 250 nmol/kg i.p.
Method: Acute animal studies were conducted in male NIH Swiss mice (12-14 weeks old, Harlan Ltd, UK) maintained on a standard rodent maintenance diet (10% fat, 30% protein and 60% carbohydrate, Trouw Nutrition, Cheshire, UK). […] All animals were housed individually in an air-conditioned room at 22±2° C. with a 12 h light:12 h dark cycle and had free access to food and water. All animal experiments were carried out in accordance with the UK Animals (Scientific Procedures) Act 1986.

purified porcine DPP-4 = target: T2, purified porcine DPP-4 (Sus scrofa, UniProt P22411); test: DPP-4 degradation / in vitro DPP-4 half-life; format: in vitro ADME; settings: incubated in the presence of DPP-4 for up to 12 hs
T2 construct: purchased Sigma-Aldrich, Dorset, UK
Method: as §1, §2

T1 sequence (P22411 whole entry): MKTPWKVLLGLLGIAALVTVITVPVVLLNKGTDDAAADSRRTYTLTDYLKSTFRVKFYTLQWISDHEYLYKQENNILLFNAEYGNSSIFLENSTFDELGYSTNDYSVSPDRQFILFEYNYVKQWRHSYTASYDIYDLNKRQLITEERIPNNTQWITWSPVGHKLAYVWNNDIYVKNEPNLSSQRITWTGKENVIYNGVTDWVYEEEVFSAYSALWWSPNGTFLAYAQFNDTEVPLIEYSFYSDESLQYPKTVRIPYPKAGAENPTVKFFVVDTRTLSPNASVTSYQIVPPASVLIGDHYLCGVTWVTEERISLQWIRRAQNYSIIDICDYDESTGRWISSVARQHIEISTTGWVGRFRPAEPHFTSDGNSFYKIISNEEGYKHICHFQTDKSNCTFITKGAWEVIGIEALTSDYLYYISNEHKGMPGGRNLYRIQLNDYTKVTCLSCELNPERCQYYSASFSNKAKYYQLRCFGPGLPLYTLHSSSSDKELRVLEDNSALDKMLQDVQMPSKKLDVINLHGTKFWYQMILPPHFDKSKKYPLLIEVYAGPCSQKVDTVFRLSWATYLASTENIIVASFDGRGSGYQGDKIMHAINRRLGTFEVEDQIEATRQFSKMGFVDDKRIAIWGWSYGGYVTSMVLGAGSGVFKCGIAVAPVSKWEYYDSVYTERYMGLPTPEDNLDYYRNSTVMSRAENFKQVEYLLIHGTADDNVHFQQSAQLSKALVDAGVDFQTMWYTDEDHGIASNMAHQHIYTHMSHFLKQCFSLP
T2 sequence (P22411 whole entry): as above

Molecule: HIS-PRO-LYS-ARG-PRO-TRP-ILE-LEU (HPKRPWIL; listed as Homo sapiens) [xenin-8, reference compound]
Insulin secretion from BRIN-BD11 cells (BRIN-BD11 cells): significantly (P<0.05 to P<0.001) stimulated insulin secretion

Molecule: HIS-PRO-GLN-GLN-PRO-TRP-ILE-LEU-GLY-ALA-ALA-GLU-GLU-GLU-GLU-GLU-GLU (HPQQPWILGAAEEEEEE; listed as Homo sapiens) [GIP(L-Glu)]
Insulin secretory effect in BRIN BD11 beta-cells of C-terminally modified peptide (BRIN-BD11 cells; 10^−12-10^−6 M, vs 5.6 mM glucose alone): does not hinder biological activity at the cellular level

half-life at 44.4 µg/mL (DPP-4): < 1 h
Molecule: CC[C@H](C)[C@H](NC(=O)[C@H](CO)NC(=O)[C@H](Cc1ccc(O)cc1)NC(=O)[C@H](CC(=O)O)NC(=O)[C@H](CO)NC(=O)[C@@H](NC(=O)[C@H](Cc1ccccc1)NC(=O)[C@@H](NC(=O)CNC(=O)[C@H](CCC(=O)O)NC(=O)[C@H](C)NC(=O)[C@@H](N)Cc1ccc(O)cc1)[C@@H](C)O)[C@@H](C)CC)C(=O)N[C@@H](C)C(=O)N[C@@H](CCSC)C(=O)N[C@@H](CC(=O)O)C(=O)N[C@@H](CCCCN)C(=O)N[C@H](C(=O)N[C@@H](Cc1c[nH]cn1)C(=O)N[C@@H](CCC(N)=O)C(=O)N[C@@H](CCC(N)=O)C(=O)N[C@@H](CC(=O)O)C(=O)N[C@@H](Cc1ccccc1)C(=O)N[C@H](C(=O)N[C@@H](CC(N)=O)C(=O)N[C@@H](Cc1c[nH]c2ccccc12)C(=O)N[C@@H](CC(C)C)C(=O)N[C@@H](CC(C)C)C(=O)N[C@@H](C)C(=O)N[C@@H](CCC(N)=O)C(=O)N[C@@H](CCCCN)C(=O)NCC(=O)N[C@@H](CCCCN)C(=O)N[C@@H](CCCCN)C(=O)N[C@@H](CC(N)=O)C(=O)N[C@@H](CC(=O)O)C(=O)N[C@@H](Cc1c[nH]c2ccccc12)C(=O)N[C@@H](CCCCN)C(=O)N[C@@H](Cc1c[nH]cn1)C(=O)N[C@@H](CC(N)=O)C(=O)N[C@H](C(=O)N[C@H](C(=O)N[C@@H](CCC(N)=O)C(=O)O)[C@@H](C)O)[C@@H](C)CC)C(C)C)[C@@H](C)CC [Native GIP, reference compound]

Molecule: HIS-PRO-GLN-GLN-PRO-TRP-ILE-LEU (HPQQPWIL; listed as Homo sapiens) [xenin-8-Gln]
Glucose lowering or insulin releasing effects, peptide 4 h prior to glucose load (lean control mice [1]; 25 nmol/kg 4 h before glucose 18 mmol/kg): devoid of any beneficial glucose lowering or insulin releasing effects
Blood glucose at 30 min post injection (lean control mice [1]; 25 nmol/kg with glucose 18 mmol/kg i.p., non-fasted mice, vs glucose alone): significantly (P<0.05) lowered blood glucose values
Overall 0-105 min AUC blood glucose (lean control mice [1]; 25 nmol/kg with glucose 18 mmol/kg i.p., vs glucose alone): significantly (P<0.05) decreased
Cumulative food intake at 120 min post-injection (lean control mice [2]): significant (P<0.05) reductions in cumulative food intake
Insulin secretion from BRIN-BD11 cells (BRIN-BD11 cells): significantly (P<0.05 to P<0.001) stimulated insulin secretion

Molecule: MET-LEU-THR-LYS-PHE-GLU-THR-LYS-SER-ALA-ARG-VAL-LYS-GLY-LEU-SER-PHE-HIS-PRO-LYS-ARG-PRO-TRP-ILE-LEU (MLTKFETKSARVKGLSFHPKRPWIL; listed as Homo sapiens) [xenin, reference compound]
Appetite suppressive effect at 90 min post-injection (lean control mice [2]; vs control): significantly (P<0.05) superior to control mice
Insulin secretion from BRIN-BD11 cells (BRIN-BD11 cells): significantly (P<0.05 to P<0.001) stimulated insulin secretion

Molecule: CC[C@H](C)[C@H](NC(=O)[C@H](CO)NC(=O)[C@H](Cc1ccc(O)cc1)NC(=O)[C@H](CC(=O)O)NC(=O)[C@H](CO)NC(=O)[C@@H](NC(=O)[C@H](Cc1ccccc1)NC(=O)[C@@H](NC(=O)CNC(=O)[C@H](CCC(=O)O)NC(=O)[C@@H](C)NC(=O)[C@@H](N)Cc1ccc(O)cc1)[C@@H](C)O)[C@@H](C)CC)C(=O)N[C@@H](C)C(=O)N[C@@H](CCSC)C(=O)N[C@@H](Cc1c[nH]cn1)C(=O)N1CCC[C@H]1C(=O)N[C@@H](CCC(N)=O)C(=O)N[C@@H](CCC(N)=O)C(=O)N1CCC[C@H]1C(=O)N[C@@H](Cc1c[nH]c2ccccc12)C(=O)N[C@H](C(=O)N[C@@H](CC(C)C)C(=O)O)[C@@H](C)CC [(DAla2)GIP/xenin-8-Gln, TYR-(d)ALA-GLU-GLY-THR-PHE-ILE-SER-ASP-TYR-SER-ILE-ALA-MET-HIS-PRO-GLN-GLN-PRO-TRP-ILE-LEU] (H-Y[dA]EGTFISDYSIAMHPQQPWIL-OH; N-terminus and C-terminus assumed)
half-life at 44.4 µg/mL (DPP-4): > 12 h
Intactness on incubation with DPP-4 (purified porcine DPP-4): remained fully intact
